From patent US20150105252A1, “SUBSTITUTED PYRAZOLES AS HERBICIDES” (E I DU PONT DE NEMOURS AND COMPANY, priority 2013, published 2015)

What was measured:
galium = experiment: Test D preemergence; type: in vivo, Galium aparine; settings: for Plant response rating, Galium: Preemergence, scale 0 to 100
Source text: (§1) Seeds of plant species selected from bluegrass (annual bluegrass, Poa annua), blackgrass (Alopecurus myosuroides), canarygrass (littleseed canarygrass, Phalaris minor), chickweed (common chickweed, Stellaria media), galium (catchweed bedstraw, Galium aparine), bromegrass, downy (downy bromegrass, Bromus tectorum), field poppy (Papaver rhoeas), field violet (Viola arvensis), foxtail, green (green foxtail, Setaria viridis), deadnettle (henbit deadnettle, Lamium amplexicaule), ryegrass, Italian (Italian ryegrass, Lolium multiflorum), kochia (Kochia scoparia), lambsquarters (Chenopodium album), oilseed rape (Brassica napus), pigweed (redroot pigweed, Amaranthus retroflexus), chamomile (scentless chamomile, Matricaria inodora), speedwell (bird's-eye speedwell, Veronica persica), barley, spring (spring barley, Hordeum vulgare), wheat, spring (spring wheat, Triticum aestivum), buckwheat, wild (wild buckwheat, Polygonum convolvulus), mustard, wild (wild mustard, Sinapis arvensis), oat, wild (wild oat, Avena fatua), radish, wild (wild radish, Raphanus raphanistrum), windgrass (Apera spica-venti), Russian thistle (Salsola kali), barley, winter (winter barley, Hordeum vulgare), and wheat, winter (winter wheat, Triticum aestivum) were planted into a silt loam soil and treated preemergence with test chemicals formulated in a non-phytotoxic solvent mixture which included a surfactant.
(§2) At the same time, these species were planted in pots containing Redi-Earth® planting medium (Scotts Company, 14111 Scottslawn Road, Marysville, Ohio 43041) comprising spaghnum peat moss, vermiculite, wetting agent and starter nutrients and treated with postemergence applications of the test chemicals formulated in the same manner. Plants ranged in height from 2 to 18 cm (1- to 4-leaf stage). Treated plants and controls were maintained in a controlled growth environment for 14 to 21 days after which time all species were compared to controls and visually evaluated. Plant response ratings, summarized in Table D, are based on a scale of 0 to 100 where 0 is no effect and 100 is complete control. A dash (-) response means no test result.

field violet = experiment: Test D preemergence; type: in vivo, Viola arvensis; settings: for Plant response rating, Field Violet: Preemergence, scale 0 to 100
Outline: (§3)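 Pre: sown in silt loam, sprayed at once. Post: grown in peat-moss/vermiculite mix, sprayed at 1–4 leaves (2–18 cm). Formulation: non-phytotoxic solvent + surfactant. Read-out: visual 0–100 vs controls, 14–21 d.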

foxtail, green = experiment: Test D preemergence; type: in vivo, Setaria viridis; settings: for Plant response rating, Foxtail, Green: Preemergence, scale 0 to 100
Source text: as §1, §2

ryegrass, Italian = experiment: Test D preemergence; type: in vivo, Lolium multiflorum; settings: for Plant response rating, Ryegrass, Italian: Preemergence, scale 0 to 100
Outline: as §3

kochia = experiment: Test D preemergence; type: in vivo, Kochia scoparia; settings: for Plant response rating, Kochia: Preemergence, scale 0 to 100
Source text: as §1, §2

pigweed = experiment: Test D preemergence; type: in vivo, Amaranthus retroflexus; settings: for Plant response rating, Pigweed: Preemergence, scale 0 to 100
Outline: as §3

barley, spring = experiment: Test D preemergence; type: in vivo, Hordeum vulgare; settings: for Plant response rating, Barley, Spring: Preemergence, scale 0 to 100
Source text: as §1, §2

barley, winter = experiment: Test D preemergence; type: in vivo, Hordeum vulgare; settings: for Plant response rating, Barley, Winter: Preemergence, scale 0 to 100
Source text: as §1, §2

buckwheat, wild [1] = experiment: Test D preemergence; type: in vivo, Polygonum convolvulus; settings: for Plant response rating, Buckwheat, Wild: Preemergence, scale 0 to 100
Outline: as §3

mustard, wild = experiment: Test D preemergence; type: in vivo, Sinapis arvensis; settings: Preemergence, scale 0 to 100
Outline: as §3

radish, wild = experiment: Test D preemergence; type: in vivo, Raphanus raphanistrum; settings: Preemergence, scale 0 to 100
Source text: as §1, §2

windgrass = experiment: Test D preemergence; type: in vivo, Apera spica-venti; settings: for Plant response rating, Windgrass: Preemergence, scale 0 to 100
Source text: as §1, §2

bluegrass = experiment: Test D postemergence; type: in vivo, Poa annua; settings: scale 0 to 100
Outline: as §3

chickweed = experiment: Test D postemergence; type: in vivo, Stellaria media; settings: scale 0 to 100
Outline: as §3

field poppy = experiment: Test D postemergence; type: in vivo, Papaver rhoeas; settings: scale 0 to 100
Outline: as §3

oilseed rape = experiment: Test D postemergence; type: in vivo, Brassica napus; settings: scale 0 to 100
Outline: as §3

wheat, spring = experiment: Test D postemergence; type: in vivo, Triticum aestivum; settings: scale 0 to 100
Outline: as §3

wheat, winter = experiment: Test D postemergence; type: in vivo, Triticum aestivum; settings: scale 0 to 100
Outline: as §3

buckwheat, wild [2] = experiment: Test D postemergence; type: in vivo, Polygonum convolvulus; settings: scale 0 to 100
Source text: as §1, §2

[3] = 16 g ai/ha, taken as preemergence

## CCc1cc(C(=O)NC2CC2)nn1Cc1ccnc(C(F)(F)F)c1 [Compound 76]
galium; [3]
  Plant response rating (scale 0 to 100), Galium: 25
galium; 31 g ai/ha
  Plant response rating, Galium: 50
galium; 62 g ai/ha
  Plant response rating, Galium: 100
galium; 125 g ai/ha
  Plant response rating, Galium: 100
galium; 250 g ai/ha
  Plant response rating, Galium: 100
Field violet; [3]
  Plant response rating (scale 0 to 100), Field Violet: 60
Field violet; 31 g ai/ha
  Plant response rating, Field Violet: 95
Field violet; 62 g ai/ha
  Plant response rating, Field Violet: 100
Field violet; 125 g ai/ha
  Plant response rating, Field Violet: 100
Field violet; 250 g ai/ha
  Plant response rating, Field Violet: 100
foxtail, green; [3]
  Plant response rating (scale 0 to 100), Foxtail, Green: 25
foxtail, green; 31 g ai/ha
  Plant response rating, Foxtail, Green: 50
foxtail, green; 62 g ai/ha
  Plant response rating, Foxtail, Green: 100
foxtail, green; 125 g ai/ha
  Plant response rating, Foxtail, Green: 100
foxtail, green; 250 g ai/ha
  Plant response rating, Foxtail, Green: 100
ryegrass, Italian; [3]
  Plant response rating (scale 0 to 100), Ryegrass, Italian: 0
ryegrass, Italian; 31 g ai/ha
  Plant response rating, Ryegrass, Italian: 0
ryegrass, Italian; 62 g ai/ha
  Plant response rating, Ryegrass, Italian: 15
ryegrass, Italian; 125 g ai/ha
  Plant response rating, Ryegrass, Italian: 65
ryegrass, Italian; 250 g ai/ha
  Plant response rating, Ryegrass, Italian: 95
kochia; [3]
  Plant response rating (scale 0 to 100), Kochia: 20
kochia; 31 g ai/ha
  Plant response rating, Kochia: 100
kochia; 62 g ai/ha
  Plant response rating, Kochia: 100
kochia; 125 g ai/ha
  Plant response rating, Kochia: 100
kochia; 250 g ai/ha
  Plant response rating, Kochia: 100
pigweed; [3]
  Plant response rating (scale 0 to 100), Pigweed: 10
pigweed; 31 g ai/ha
  Plant response rating, Pigweed: 60
pigweed; 62 g ai/ha
  Plant response rating, Pigweed: 80
pigweed; 125 g ai/ha
  Plant response rating, Pigweed: 100
pigweed; 250 g ai/ha
  Plant response rating, Pigweed: 100
barley, spring; 16 g ai/ha, taken as preemergence, 0 = no effect, 100 = complete control
  Plant response rating (scale 0 to 100), Barley, Spring: 0
barley, spring; 31 g ai/ha
  Plant response rating, Barley, Spring: 0
barley, spring; 62 g ai/ha
  Plant response rating, Barley, Spring: 10
barley, spring; 125 g ai/ha
  Plant response rating, Barley, Spring: 65
barley, spring; 250 g ai/ha
  Plant response rating, Barley, Spring: 75
barley, winter; [3]
  Plant response rating (scale 0 to 100), Barley, Winter: 0
barley, winter; 31 g ai/ha
  Plant response rating, Barley, Winter: 0
barley, winter; 62 g ai/ha
  Plant response rating, Barley, Winter: 15
barley, winter; 125 g ai/ha
  Plant response rating, Barley, Winter: 60
barley, winter; 250 g ai/ha
  Plant response rating, Barley, Winter: 75
buckwheat, wild [1]; [3]
  Plant response rating (scale 0 to 100), Buckwheat, Wild: 0
buckwheat, wild [1]; 31 g ai/ha
  Plant response rating, Buckwheat, Wild: 20
buckwheat, wild [1]; 62 g ai/ha
  Plant response rating, Buckwheat, Wild: 70
buckwheat, wild [1]; 125 g ai/ha
  Plant response rating, Buckwheat, Wild: 100
buckwheat, wild [1]; 250 g ai/ha
  Plant response rating, Buckwheat, Wild: 100
mustard, wild; 31 g ai/ha
  Plant response rating, Mustard, Wild: 60
mustard, wild; 62 g ai/ha
  Plant response rating, Mustard, Wild: 100
mustard, wild; 125 g ai/ha
  Plant response rating, Mustard, Wild: 100
mustard, wild; 250 g ai/ha
  Plant response rating, Mustard, Wild: 100
radish, wild; 31 g ai/ha
  Plant response rating, Radish, Wild: 75
radish, wild; 62 g ai/ha
  Plant response rating, Radish, Wild: 100
radish, wild; 125 g ai/ha
  Plant response rating, Radish, Wild: 100
radish, wild; 250 g ai/ha
  Plant response rating, Radish, Wild: 100
windgrass; [3]
  Plant response rating (scale 0 to 100), Windgrass: 5
windgrass; 31 g ai/ha
  Plant response rating, Windgrass: 15
windgrass; 62 g ai/ha
  Plant response rating, Windgrass: 65
windgrass; 125 g ai/ha
  Plant response rating, Windgrass: 80
windgrass; 250 g ai/ha
  Plant response rating, Windgrass: 100
bluegrass; Postemergence, 16 g ai/ha
  Plant response rating, Bluegrass: 5
bluegrass; Postemergence, 31 g ai/ha
  Bluegrass plant response rating: 5
bluegrass; Postemergence, 125 g ai/ha
  Bluegrass plant response rating: 20
bluegrass; Postemergence, 250 g ai/ha
  Bluegrass plant response rating: 20
bluegrass; postemergence, 62 g ai/ha
  Bluegrass plant response rating: 10
chickweed; Postemergence, 16 g ai/ha
  Plant response rating, Chickweed: 35
chickweed; Postemergence, 31 g ai/ha
  Chickweed plant response rating: 50
chickweed; Postemergence, 125 g ai/ha
  Chickweed plant response rating: 60
chickweed; Postemergence, 250 g ai/ha
  Chickweed plant response rating: 70
chickweed; postemergence, 62 g ai/ha
  Chickweed plant response rating: 55
Field poppy; Postemergence, 16 g ai/ha
  Plant response rating, Field Poppy: 60
Field poppy; Postemergence, 31 g ai/ha
  Field Poppy plant response rating: 65
Field poppy; Postemergence, 125 g ai/ha
  Field Poppy plant response rating: 85
Field poppy; Postemergence, 250 g ai/ha
  Field Poppy plant response rating: 90
Field poppy; postemergence, 62 g ai/ha
  Field Poppy plant response rating: 70
Oilseed rape; Postemergence, 16 g ai/ha
  Plant response rating, Oilseed Rape: 10
Oilseed rape; Postemergence, 31 g ai/ha
  Oilseed Rape plant response rating: 15
Oilseed rape; Postemergence, 125 g ai/ha
  Oilseed Rape plant response rating: 50
Oilseed rape; Postemergence, 250 g ai/ha
  Oilseed Rape plant response rating: 70
Oilseed rape; postemergence, 62 g ai/ha
  Oilseed Rape plant response rating: 20
wheat, spring; Postemergence, 16 g ai/ha
  Plant response rating, Wheat, Spring: 0
wheat, spring; Postemergence, 31 g ai/ha
  Wheat, Spring plant response rating: 5
wheat, spring; Postemergence, 125 g ai/ha
  Wheat, Spring plant response rating: 5
wheat, spring; Postemergence, 250 g ai/ha
  Wheat, Spring plant response rating: 10
wheat, spring; postemergence, 62 g ai/ha
  Wheat, Spring plant response rating: 5
wheat, winter; Postemergence, 16 g ai/ha
  Plant response rating, Wheat, Winter: 0
wheat, winter; Postemergence, 31 g ai/ha
  Wheat, Winter plant response rating: 0
wheat, winter; Postemergence, 125 g ai/ha
  Wheat, Winter plant response rating: 15
wheat, winter; Postemergence, 250 g ai/ha
  Wheat, Winter plant response rating: 20
wheat, winter; postemergence, 62 g ai/ha
  Wheat, Winter plant response rating: 10
buckwheat, wild [2]; Postemergence, 16 g ai/ha
  Plant response rating, Buckwheat, Wild: 50
buckwheat, wild [2]; Postemergence, 31 g ai/ha
  Buckwheat, Wild plant response rating: 55
buckwheat, wild [2]; Postemergence, 125 g ai/ha
  Buckwheat, Wild plant response rating: 60
buckwheat, wild [2]; Postemergence, 250 g ai/ha
  Buckwheat, Wild plant response rating: 100
buckwheat, wild [2]; postemergence, 62 g ai/ha
  Buckwheat, Wild plant response rating: 50
